Test results taken from patent publication US20160318866A1, “SUBSTITUTED BIPIPERIDINYL DERIVATIVES” (Bayer Pharma Aktiengesellschaft, priority 2013, published 2016).
Counter-ions that a name gives are not always drawn.

Tested on: diabetic (ZDFfa/fa) and healthy rats (Wistar)
Assay: Assay of perfusion-enhancing substances (microcirculation), laser doppler at the paw
Format: in vivo, rat
Conditions: at the MED; single oral dose; 30 min after administration
Description: In diabetic (ZDFfa/fa) and healthy rats (Wistar), a laser doppler probe was fastened under anaesthesia conditions (isoflurane anaesthesia) at the sole of the paw for measuring cutaneous microcirculation. The test animals were once treated orally with the test substances. During the experiment, microperfusion and temperature of the lower extremities were documented continuously. Here, a temperature-sensitive laser doppler probe (Periflux, O2C) was fastened with adhesive to the paws of the animals, allowing the measurement of microperfusion and skin temperature. The microcirculation measurement values were measured on both paws 30 min after oral administration of the test substance. […] Also stated is the MED for the significant increase of skin temperature (ttest).

SMILES	factor by which microcirculation is improved at this dose compared to placebo
COC[C@@]1(C)CCCN2CCc3c(oc4ccccc34)[C@@H]21 [ORM-12741, reference compound]	1.9 x

Same assay, conditions: minimum effective dose for significant increase of skin temperature (ttest); single oral dose

SMILES	MED [mg/kg] skin temperature
COC[C@@]1(C)CCCN2CCc3c(oc4ccccc34)[C@@H]21 [ORM-12741, reference compound]	0.01 mg/kg

Same assay, conditions: minimum effective dose for significantly improved microcirculation vs placebo; single oral dose; 30 min after administration

SMILES	MED [mg/kg] microcirculation
COC[C@@]1(C)CCCN2CCc3c(oc4ccccc34)[C@@H]21 [ORM-12741, reference compound]	0.1 mg/kg

Tested on: adult female Wistar rats
Assay: Radiotelemetric measurement of blood pressure and heart rate of conscious rats
Format: in vivo, rat
Conditions: 10 mg/kg, oral, telemetry over 24 hours
Description: A commercially available telemetry system from Data Sciences International DSI, USA, was employed for the measurements on conscious rats described below. The system consists of 3 main components: (1) implantable transmitters (Physiotel® telemetry transmitter), (2) receivers (Physiotel® receiver), which are linked via a multiplexer (DSI Data Exchange Matrix) to a (3) data acquisition computer. The telemetry system makes it possible to continuously record blood pressure, heart rate and body motion of conscious animals in their usual habitat.
The studies were conducted on adult female Wistar rats with a body weight of >200 g. After transmitter implantation, the experimental animals were housed singly in type III Makrolon® cages. They had free access to standard feed and water. The day/night rhythm in the test laboratory was set by changing the illumination of the room.
The telemetry transmitters used (PA-C40, DSI) were surgically implanted under aseptic conditions in the experimental animals at least 14 days before the first experimental use.
For the implantation, the fasted animals were anaesthetized with isoflurane (IsoFlo®, Abbott, initiation 5%, maintenance 2%) and shaved and disinfected over a large area of their abdomens. […]
Each of the instrumented rats living in the system was assigned a separate receiving antenna (RPC-1 Receiver, DSI). […] The signals emitted were detected online by a data acquisition system (Dataquest™ A.R.T. for Windows, DSI) and processed accordingly.
In the standard procedure, the following were measured for 10-second periods in each case: (1) systolic blood pressure (SBP), (2) diastolic blood pressure (DBP), (3) mean arterial pressure (MAP), (4) heart rate (HR) and (5) activity (ACT). These parameters were measured over 24 hours after administration.
The acquisition of measurements was repeated under computer control at 5-minute intervals. The source data obtained as absolute values were corrected in the diagram with the currently measured barometric pressure (Ambient Pressure Reference Monitor, APR-1, DSI). […]

SMILES	blood pressure
COC[C@@]1(C)CCCN2CCc3c(oc4ccccc34)[C@@H]21 [ORM-12741, reference compound]	additional reduction in blood pressure

Molecular target: T1, human α2C receptor (Homo sapiens, UniProt P18825)
T1 construct: expressed in transfected cells; host or cells: CHO cells, also recombinantly expressing chimeric G protein Gαqi3 and mitochondrial obelin (mtOb)
T1 sequence (P18825 1-462): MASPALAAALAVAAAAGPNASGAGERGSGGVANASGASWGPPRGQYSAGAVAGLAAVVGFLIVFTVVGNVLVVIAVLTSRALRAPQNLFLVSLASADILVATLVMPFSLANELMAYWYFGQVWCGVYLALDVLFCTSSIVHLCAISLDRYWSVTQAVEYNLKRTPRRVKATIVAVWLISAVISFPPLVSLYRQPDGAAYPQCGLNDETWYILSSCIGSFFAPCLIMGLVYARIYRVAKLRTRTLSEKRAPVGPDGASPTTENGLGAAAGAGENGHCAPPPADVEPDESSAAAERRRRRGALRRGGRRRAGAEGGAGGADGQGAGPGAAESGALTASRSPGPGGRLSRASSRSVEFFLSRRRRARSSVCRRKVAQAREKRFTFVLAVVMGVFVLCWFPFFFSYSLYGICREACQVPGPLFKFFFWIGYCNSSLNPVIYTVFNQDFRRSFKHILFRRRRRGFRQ
Assay: Antagonism against the adrenoreceptor α2C (luminescence, recombinant CHO cell line)
Format: cell-based
Conditions: antagonism against adrenoreceptor α2C; noradrenaline 20 nM; tested up to 10 μM; read-out: IC50
Outline: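 CHO cells expressing human α2C receptor with chimeric Gαqi3 and mitochondrial obelin, loaded with 2.5 μg/ml coelenterazine for one day at 30 °C.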

SMILES	IC50
C[C@@H]1CCCN(C2CCN(C(=O)c3ccc(C(=O)NC(C)(C)C)cc3Cl)CC2)C1 [Example 101, N-tert-Butyl-3-chloro-4-{[(3R)-3-methyl-1,4′-bipiperidin-1′-yl]carbonyl}benzamide formic acid salt]	21 nM
CC1CCCN(C2CCN(C(=O)c3ccc(C(=O)NC(C)(C)C)cc3F)CC2)C1 (centres unmarked) [Example 102, N-tert-Butyl-3-fluoro-4-[(3-methyl-1,4′-bipiperidin-1′-yl)carbonyl]benzamide hydrochloride]	67 nM
CC1CCCN(C2CCN(C(=O)c3ccc(C(=O)NC(C)(C)C)c(F)c3)CC2)C1 (centres unmarked) [Example 103, N-tert-Butyl-2-fluoro-4-[(3-methyl-1,4′-bipiperidin-1′-yl)carbonyl]benzamide]	73 nM
CC1=C(C)CN(C2CCN(C(=O)c3ccc(C(=O)Nc4c(C)noc4C)cc3)CC2)CC1 [Example 104, 4-{[4-(4,5-Dimethyl-3,6-dihydropyridin-1 (2H)-yl)piperidin-1-yl]carbonyl}-N-(3,5-dimethyl-1,2-oxazol-4-yl)benzamide]	9 nM
COCC1CCCN(C2CCN(C(=O)c3ccc(C(=O)Nc4c(C)noc4C)cc3)CC2)C1 (centres unmarked) [Example 105, N-(3,5-Dimethyl-1,2-oxazol-4-yl)-4-{[3-(methoxymethyl)-1,4′-bipiperidin-1′-yl]carbonyl}benzamide]	10 nM
CC(C)(C)OCC1CCCN(C2CCN(C(=O)c3ccc(C(C)(C)O)cc3)CC2)C1 (centres unmarked) [Example 106, [3-(tert-Butoxymethyl)-1,4′-bipiperidin-1′-yl][4-(2-hydroxypropan-2-yl)phenyl]methanone]	35 nM
CC(C)(C)OCC1CCCN(C2CCN(C(=O)c3ccc(C(C)(C)C)cc3)CC2)C1 (centres unmarked) [Example 107, [3-(tert-Butoxymethyl)-1,4′-bipiperidin-1′-yl](4-tert-butylphenyl)methanone]	90 nM
CC(C)(O)c1ccc(C(=O)N2CCC(N3CCCC(COc4cccc(F)c4)C3)CC2)cc1 (centres unmarked) [Example 108, {3-[(3-Fluorophenoxy)methyl]-1,4′-bipiperidin-1′-yl}[4-(2-hydroxypropan-2-yl)phenyl]methanone]	112 nM
COCCc1noc(C2CCCN(C3CCN(C(=O)c4ccc(C(C)(C)C)cc4)CC3)C2)n1 (centres unmarked) [Example 109, (4-tert-Butylphenyl){3[3-(2-methoxyethyl)-1,2,4-oxadiazol-5-yl]-1,4′-bipiperidin-1′-}methanone]	104 nM
CC(C)(O)c1ccc(C(=O)N2CCC(N3CCCC(COC(F)(F)F)C3)CC2)cc1 (centres unmarked) [Example 110, [4-(2-Hydroxypropan-2-yl)phenyl]{3-[(trifluoromethoxy)methyl]-1,4′-bipiperidin-1′-yl}methanone]	7 nM
CC(C)(O)c1ccc(C(=O)N2CCC(N3CCCC(OCC4CCC4)C3)CC2)cc1 (centres unmarked) [Example 111, [3-(Cyclobutylmethoxy)-1,4′-bipiperidin-1-yl][4-(2-hydroxypropan-2-yl)phenyl]methanone]	10 nM
CC(C)(O)c1ccc(C(=O)N2CCC(N3CCCC(OC4CC4)C3)CC2)cc1 (centres unmarked) [Example 112, 3-(Cyclopropyloxy)-1,4′-bipiperidin-1′-yl][4-(2-hydroxypropan-2-yl)phenyl]methanone formic acid salt]	358 nM
C[C@@H]1CCCN(C2CCN(C(=O)c3ccc(C(C)(C)O)c(F)c3)CC2)C1 [Example 113, [3-Fluoro-4-(2-hydroxypropan-2-yl)phenyl][(3R)-3-methyl-1,4′-bipiperidin-1′-yl]methanone]	33 nM
CCC1CCCN(C2CCN(C(=O)c3ccc(C(C)(C)O)cc3)CC2)C1 (centres unmarked) [Example 114, [3-Ethyl-1,4′-bipiperidin-1′-yl][4-(2-hydroxypropan-2-yl)phenyl]methanone]	72 nM
CC(C)(O)c1ccc(C(=O)N2CCC(N3CCCC(COC4CC4)C3)CC2)cc1 (centres unmarked) [Example 118, {3-[(Cyclopropyloxy)methyl]-1,4′-bipiperidin-1′-yl}[4-(2-hydroxypropan-2-yl)phenyl]methanone]	8 nM
COC(C)(C)c1ccc(C(=O)N2CCC(N3CCCC(COC(C)(C)C)C3)CC2)cc1 (centres unmarked) [Example 119, [3-(tert-Butoxymethyl)-1,4′-bipiperidin-1′-yl][4-(2-methoxypropan-2-yl)phenyl]methanone]	16 nM
CCOCC1CCCN(C2CCN(C(=O)c3ccc(C(C)(C)O)cc3)CC2)C1 (centres unmarked) [Example 120, [3-(Ethoxymethyl)-1,4′-bipiperidin-1′-yl][4-(2-hydroxypropan-2-yl)phenyl]methanone]	10 nM
COC(C)(C)c1ccc(C(=O)N2CCC(N3CCCC(OCC4CC4)C3)CC2)cc1 (centres unmarked) [Example 122, [3-(Cyclopropylmethoxy)-1,4′-bipiperidin-1′-yl][4-(2-methoxypropan-2-yl)phenyl]methanone]	9 nM
O=C(c1ccc(C2(O)COC2)cc1)N1CCC(N2CCCC(OCC3CC3)C2)CC1 (centres unmarked) [Example 124, [3-(Cyclopropylmethoxy)-1,4′-bipiperidin-1′-yl][4-(3-hydroxyoxetan-3-yl)phenyl]methanone]	39 nM
CC(C)(O)c1ccc(C(=O)N2CCC(N3CCCC(C4CC4)C3)CC2)cc1 (centres unmarked) [Example 126, (3-Cyclopropyl-1,4′-bipiperidin-1′-yl)[4-(2-hydroxypropan-2-yl)phenyl]methanone]	12 nM
CC(C)(O)c1ccc(C(=O)N2CCC(N3CCCC(OCCOC(F)(F)F)C3)CC2)cc1 (centres unmarked) [Example 127, [4-(2-Hydroxypropan-2-yl)phenyl]{3-[2-(trifluoromethoxy)ethoxy]-1,4′-bipiperidin-1′-yl}methanone]	154 nM
CC(C)(O)c1ccc(C(=O)N2CCC(N3CCCC(OCC4CC4)C3)CC2)cc1 (centres unmarked) [Example 128, [3-(Cyclopropylmethoxy)-1,4′-bipiperidin-1′-yl][4-(2-hydroxypropan-2-yl)phenyl]methanone]	36 nM
